“And” between values parts separate entries of the source, which are not always exact repeats. Equal values may be shown once. Read-outs that look alike come from different tables or passages of the source.
Key:
[1] = biological target: T1, VIM-2 (Pseudomonas aeruginosa, UniProt Q9K2N0); assay: VIM-2 enzyme kinetics with nitrocefin, competitive inhibition model; assay type: biochemical
T1 construct: The activity of purified VIM-2 was measured spectrophotometrically; made in house
Description: Nitrocefin was used as the substrate, as it is a chromogenic cephalosporin. The activity of purified VIM-2 was measured spectrophotometrically (Cytation 3, BioTek, Winooski, VT, USA) in a potassium phosphate buffer (PBS, pH = 7.4, prepared according to a published recipe).

[2] = design: method as in PMID 27864057; settings: read-out: Kd (Zn binding); cited from earlier work
[3] = Toxicity against wild type human HEK 293T cells; assay type: cell-based; settings: HEK293T cells (wild type); quercetin analogs alone; human kidney cell line HEK293T
[4] = system: PAX5VIM-2 (VIM-2 expressing bioluminescent PA); assay: MIC assay against PAX5VIM-2 (CLSI, MHB-2); assay type: cell-based, Pseudomonas aeruginosa
Description: MIC assays were carried out following the Clinical and Laboratory Standards Institute (CLSI) established guidelines using MHB-2 and bacterial concentrations of 5 × 10^5 CFU/mL [57, 58]. A varying concentration of quercetin derivatives or conventional antibiotics was dissolved in the media with bacteria cells. The resulting suspensions were transferred to a 96-well microliter plate at 200 μL/well (triplicate for each compound). The plate was then incubated overnight at 37 °C. The MIC was determined as the concentration at which no growth was observed.

[5] = system: PAX5-WT; assay: Single dose inhibition against SBL-producing PAX5-WT; assay type: cell-based, Pseudomonas aeruginosa; settings: amoxicillin 25 μM; amoxicillin:taxifolin 1:1; QATC 2:1:2
Description: Bacteria were diluted to 5 × 10^5 CFU/mL in MH broth (MHB). A growth control containing only bacteria and a negative control containing only MHB were added. Test wells were treated with either 25 µM meropenem, ceftazidime, amoxicillin, or doripenem, as well as 1:1 combinations of the previous antibiotics with vaborbactam. Each set was repeated in triplicate, and the final viability was determined in reference to the growth control.
Supplementary Figure S9. Single dose inhibition of taxifolin against SBL-producing PAX5-WT. Concentration of amoxicillin was 25 μM for all samples. The molar ratio of the augmentin was 2:1 (amoxicillin:clavulanate); the molar ratio of the amoxicillin:taxifolin was 1:1; the molar ratio of the QATC was 2:1:2 (amoxicillin:clavulanate:taxifolin).
Supplementary Figure S10. […]

[6] = system: HEK 293T cells; assay: Toxicity against wild type human HEK 293T cells; assay type: cell-based; settings: quercetin analogs alone; human kidney cell line HEK293T
[7] = inhibitor fixed at 500 μM, nitrocefin 5 to 100 μM, PBS pH 7.4, 10 min pre-incubation, read-out: VIM-2, Ki
[8] = quercetin analogs in combination with augmentin (2:1 molar amoxicillin:clavulanate), PAX5VIM-2

Compound | Ki [1, 7] [µM] | CC50 [3] [µM] | MIC [4, 8] [µg/mL] | further results
O=c1c(O)c(-c2ccc(O)c(O)c2)oc2cc(O)cc(O)c12 [1a, quercetin] | 41 ± 4 |  |  | Kd [2]: ~100 µM
O=c1cc(-c2ccc(O)c(O)c2)oc2c(C3OC(CO)C(O)C(O)C3O)c(O)cc(O)c12 (stereo not drawn) [1d] | 34 ± 4 |  |  | 
O=c1cc(-c2ccc(O)c(O)c2)oc2cc(O)cc(O)c12 [11a] | 36 ± 2 | 175 | 7.2 | 
O=C(O)[C@H]1O[C@@H](Oc2cc(O)c3c(=O)cc(-c4ccc(O)c(O)c4)oc3c2)[C@H](O)[C@@H](O)[C@@H]1O [11b] | 52 ± 9 | 182 | 11.6 | 
CC1(C)S[C@@H]2[C@H](NC(=O)[C@H](N)c3ccc(O)cc3)C(=O)N2[C@H]1C(=O)O [amoxicillin, reference compound] |  |  |  | MIC ([4]; Pseudomonas aeruginosa, read-out: MIC of amoxicillin): 100 µM and 36 µg/mL
O=c1c(O)c(-c2cc(O)c(O)c(O)c2)oc2cc(O)cc(O)c12 [compound 3] | 42 ± 1 |  | 9.4 | 
O=c1c(O)c(-c2ccc(O)c(O)c2)oc2cc(O)c(O)c(O)c12 [compound 4, quercetagetin] |  |  | 3.9 | Ki [1]: 13 ± 2 µM
O=C1c2c(O)cc(O)cc2OC(c2ccc(O)c(O)c2)C1O (stereo not drawn) [compound 5, taxifolin] | 8 ± 1 | > 200 | 3.1 | benefit in the killing of SBL-only PAX5-WT [5]: unable to provide any significant benefit in the killing; concentration inhibiting VIM-2 expressing P. aeruginosa cell proliferation ([4]; as part of a triple combination with amoxicillin and clavulanate): < 4 µg/mL
COc1ccc(-c2cc(=O)c3c(O)cc(O)cc3o2)cc1O [compound 12] |  |  | 7.5 | 
COc1ccc(-c2oc3cc(OC)c(OC)c(O)c3c(=O)c2OC)cc1O [compound 13] |  | > 200 | 9.4 | 
chrysoeriol [compound 14] |  |  | 7.6 | CC50 [6]: > 200 µM
